5 compounds from patent publication US8158139B2 (priority 2004, dated 2012) can be followed below.

This series in a line: Flash point of solvents, closed cup method. The series is classed as physicochemical. An excerpt:
In one embodiment, the formulation contains a mixture of organic solvent and isopropyl alcohol.

The compound `OCc1ccccc1` [benzyl alcohol] returned a flash point of 100.6 °C.

Consider `C=C(C)[C@H]1CC=C(C)CC1` [dipentene], for which the flash point was 46 °C.

For the compound `CCO` [ethyl alcohol], the flash point turned out to be 14 °C.

As to `CC(C)O` [isopropyl alcohol], the flash point worked out at 11.7 °C.

`CC(O)CO` (centres unmarked) [propylene glycol]: the flash point turned out to be 99 °C.
